Assays:
recombinant human PKR = recombinant human PKR (Homo sapiens, UniProt P30613); assay: pyruvate kinase (PKR) activity test, activation of recombinant enzyme (fluorescence kit); type: biochemical
Description: To test the activation effect of the compound of the present disclosure on recombinant human PKR.
3.1 A recombinant human PKR enzyme solution was prepared at a concentration of 60 ng/well (a 20 µL reaction system), and 5 µL of the solution was added into each well of a black transparent bottom 384-well plate.
3.2 Compound solutions were prepared at different concentrations, with the final concentrations of 1000/300/100 nM (containing 1% DMSO). Each 5 µL of the compound solution was added into the plate in step 3.1 and mixed well. The plate was incubated at room temperature for 10 min.
3.3 A reaction system was prepared according to the instructions of a kit (as shown in the table below), and 10 µL of the reaction system was added into each well of the 384-well plate, and mixed uniformly with the solution in step 3.2.
3.4 The 384-well plate was placed on a microplate reader to detect the fluorescence value at 540/590 nm, where the value was read every 2 minutes and the detection was conducted continuously for 1 hour.
3.5 The Slope value within the detection time was calculated, and the 1% DMSO well was used as a control well to calculate a compound activation rate. Activation rate % = (Slopeofcompoundwell/Slopeofcontrolwell) × 100% [formula]
With the log value of the compound concentration as the X axis and the percentage activation rate as the Y axis, a dose-effect curve was fitted with the log(agonist) vs. response-variable slope of the analysis software GraphPad Prism 5, and the AC50 value of the activity of each compound against PKR was obtained. Y = min + (max−min)/(1+10^(∧)((LogAC50−X)×Hillslope)). [formula]

[1] = molecular target: T1, PKR in ex vivo red blood cells from healthy individuals (Homo sapiens, UniProt P30613); assay: ex vivo pyruvate kinase (PKR) activity experiment, red blood cells of healthy individuals; type: cell-based; conditions: 3 hours co-cultivation
T1 construct: endogenous in cells; host or cells: human red blood cells isolated from fresh peripheral blood of healthy individuals
T1 sequence (P30613 whole entry): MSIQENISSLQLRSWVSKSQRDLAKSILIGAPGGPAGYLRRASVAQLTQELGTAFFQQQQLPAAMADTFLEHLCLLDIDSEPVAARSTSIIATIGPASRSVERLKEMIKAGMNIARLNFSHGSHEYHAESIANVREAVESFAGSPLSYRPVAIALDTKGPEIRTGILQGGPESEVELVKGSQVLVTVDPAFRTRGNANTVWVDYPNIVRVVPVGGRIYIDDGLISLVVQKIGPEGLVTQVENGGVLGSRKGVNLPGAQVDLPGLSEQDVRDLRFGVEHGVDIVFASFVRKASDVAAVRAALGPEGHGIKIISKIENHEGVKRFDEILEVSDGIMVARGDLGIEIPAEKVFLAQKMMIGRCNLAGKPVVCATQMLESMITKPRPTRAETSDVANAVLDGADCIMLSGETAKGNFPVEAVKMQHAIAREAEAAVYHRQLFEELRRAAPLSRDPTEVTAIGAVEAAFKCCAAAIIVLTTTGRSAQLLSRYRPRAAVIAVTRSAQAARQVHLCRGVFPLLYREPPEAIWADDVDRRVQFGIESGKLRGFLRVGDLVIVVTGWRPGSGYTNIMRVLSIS
Description: To test the effects of the compound of the present disclosure on PKR activation in ex vivo red blood cells from healthy individuals and patients with thalassemia.
• i. 5 g of glucose, 85 mg of adenine, and 2.625 g of mannitol were weighed and added into a 50 mL centrifuge tube. 40 mL of PBS was added to dissolve (sonicate for 30 minutes until completely dissolved). The solution was filtered through a 0.22 µm filter, then added to 460 mL of sterile PBS and mixed thoroughly.
• i. Fresh human peripheral blood was collected. K2EDTA was used as the anticoagulant. 1 part anticoagulant with 9 parts blood was mixed, then centrifuged at 500 g for 10 minutes at room temperature to remove the plasma. • ii. Packed red blood cells: 1.5 volumes of PBS were added, then centrifuged at 2000 ×g for 5 minutes at room temperature. After centrifugation, the supernatant was removed. This step was repeated twice. • iii. Diluted red blood cells: 1.5 volumes of PBS were added, then resuspended and mixed thoroughly. • iv. The diluted red blood cells were slowly added to 0.5 volume of 70% isotonic solution (e.g., 7.5 mL of diluted red blood cells + 3 mL of 70% isotonic solution Percoll) and centrifuged at 4000 ×g for 20 minutes at 4°C. • v. The supernatant was removed. The red blood cells at the bottom were washed once with 4-5 mL of PBS to elute the Percoll gel, and then centrifuged at 2000 ×g for 5 minutes at room temperature. • vi. The supernatant was removed. The red blood cells were counted and then diluted in AGAM medium containing 10% FBS to a density of 2 × 10^8 cells/mL for storage at 4°C.
i. The red blood cells were seeded into a 96-well plate at a uniform density of 1 × 10^7 cells/mL, with 100 µL per well. The test compounds (dissolved in DMSO) were diluted and added to the cell culture medium, resulting in final compound concentrations of 3000, 1000, 300, 100, 10, 3, and 1 nM (with 1% DMSO). The cells and compounds were co-cultivated for 3 hours in a 37°C incubator with 5% CO2. Subsequently, the plate was centrifuged at 2000 g for 20 minutes, and the supernatant was discarded. 100 µL of red blood cell lysis buffer was added to the cell pellet, vortexed for 20 minutes, and centrifuged at 4000 g for 5 minutes. The supernatant was collected for analysis. ii. The reaction system was prepared according to the kit instructions (shown as the table below), 10 µL of the reaction system was added to each well of a 384-well plate, and 10 µL of red blood cell lysis buffer was took and mixed well (20 µL reaction system).
iii. A black, transparent-bottomed 384-well plate was placed in a microplate reader to measure fluorescence at 540/590 nm. The fluorescence was read every 2 minutes for 1 hour.
i. The Slope value was calculated over the assay time. Compound activation percentage was calculated using the 1% DMSO well as the control well. Activation percentage = (Slope of compound well / Slope of control well) × 100% ii. Dose-response curve was fit using the logarithmic compound concentration on the X-axis and the percent activation percentage on the Y-axis, the log(agonist) vs. response - variable slope function in GraphPad Prism 5 was used to determine the AC50 value for each compound on PKR activity. Y = min + (max−min)/(1+10^(∧)((LogAC50−X)×Hillslope)). [formula] The PKR agonist effects of the compound of the present disclosure on ex vivo red blood cells from healthy individuals and thalassemia patients were determined using the above assay. The AC50 values measured on ex vivo red blood cells from healthy individuals are as follows (A represents 0-100 nM, B represents 101-300 nM, and C represents 300-1000 nM): […]

recombinant human PKR, sequence (P30613 whole entry): as above

SMILES: O=C(C(CO)c1ccc(F)cc1)N1CC(=C2CN(S(=O)(=O)c3ccc4ncsc4c3)C2)C1 [Compound 50, (S)-1-(1'-(benzo[d]thiazol-6-ylsulfonyl)-1',4'-dihydro-2H,2'H-[3,3'-diazetidinylidene]-1(4H)-yl)-2-(4-fluorophenyl)-3-hydroxypropan-1-one]
- AC50 (recombinant human PKR): < 0.1 µM
- AC50 [1]: < 0.1 µM

SMILES: O=C(c1c[nH]c2ccccc12)N1CC(=C2CN(S(=O)(=O)c3ccc4ncsc4c3)C2)C1 [Compound 52, (1'-(benzo[d]thiazol-6-ylsulfonyl)-1',4'-dihydro-2H,2'H-[3,3'-diazetidinylidene]-1(4H)-yl)(1H-indol-3-yl)methanone]
- AC50 (recombinant human PKR): 0.3 to 1 µM
- AC50 [1]: 0.3 to 1 µM

SMILES: COc1ccc(C(CO)C(=O)N2CC(=C3CN(S(=O)(=O)c4ccccn4)C3)C2)cc1 (centres unmarked) [Compound 53, 3-hydroxy-2-(4-methoxyphenyl)-1-(1'-(pyridin-2-ylsulfonyl)-1',4'-dihydro-2H,2'H-[3,3'-diazetidinylidene]-1(4H)-yl)propan-1-one]
- AC50 (recombinant human PKR): 0.3 to 1 µM
- AC50 [1]: 0.101 to 0.3 µM

SMILES: O=C(c1c[nH]c2ccccc12)N1CC(=C2CN(S(=O)(=O)c3ccccn3)C2)C1 [Compound 56, (1H-indol-3-yl)(1'-(pyridin-2-ylsulfonyl)-1',4'-dihydro-2H,2'H-[3,3'-diazetidinylidene]-1(4H)-yl)met hanone]
- AC50 (recombinant human PKR): 0.3 to 1 µM
- AC50 [1]: 0.3 to 1 µM

SMILES: Cc1ccc(C(CO)C(=O)N2CC(=C3CN(S(=O)(=O)c4ccccn4)C3)C2)cc1 (centres unmarked) [Compound 57, 3-hydroxy-1-(1'-(pyridin-2-ylsulfonyl)-1',4'-dihydro-2H,2'H-[3,3'-diazetidinylidene]-1(4H)-yl)-2-(p-tolyl)propan-1-one]
- AC50 (recombinant human PKR): 0.101 to 0.3 µM
- AC50 [1]: < 0.1 µM

SMILES: O=C(N1CC(=C2CN(S(=O)(=O)c3ccccn3)C2)C1)C1(c2ccccc2)CCOCC1 [Compound 58]
- AC50 (recombinant human PKR): 0.101 to 0.3 µM
- AC50 [1]: 0.101 to 0.3 µM

SMILES: O=C(C(CO)c1cccnc1)N1CC(=C2CN(S(=O)(=O)c3ccccn3)C2)C1 (centres unmarked) [Compound 60, 3-hydroxy-1-(1'-(pyridin-2-ylsulfonyl)-1',4'-dihydro-2H,2'H-[3,3'-diazetidinylidene]-1(4H)-yl)-2-(pyridin-3-yl)propan-1-one]
- AC50 (recombinant human PKR): 0.3 to 1 µM
- AC50 [1]: 0.3 to 1 µM

SMILES: CC(C)(O)C(C(=O)N1CC(=C2CN(S(=O)(=O)c3ccccn3)C2)C1)c1ccccc1 (centres unmarked) [Compound 62, 3-hydroxy-3-methyl-2-phenyl-1-(1'-(pyridin-2-ylsulfonyl)-1',4'-dihydro-2H,2'H-[3,3'-diazetidinylidene]-1(4H)-yl)butan-1-one]
- AC50 (recombinant human PKR): 0.3 to 1 µM
- AC50 [1]: 0.3 to 1 µM

SMILES: O=C(C1NCc2ccccc21)N1CC(=C2CN(S(=O)(=O)c3ccc4ncsc4c3)C2)C1 (centres unmarked) [Compound 64, (1'-(benzothiazol-6-ylsulfonyl)-1',4'-dihydro-2H,2'H-[3,3'-diazetidinylidene]-1(4H)-yl)(isoindolin-1-yl)methanone]
- AC50 (recombinant human PKR): 0.3 to 1 µM
- AC50 [1]: 0.3 to 1 µM

SMILES: COc1ccc(S(=O)(=O)N2CC(=C3CN(C(=O)[C@H](CO)c4ccccc4)C3)C2)nc1 [Compound 67, (S)-3-hydroxy-1-(1'-((5-methoxypyridin-2-yl)sulfonyl)-1',4'-dihydro-2H,2'H-[3,3'-diazetidinylidene]-1(4H)-yl)-2-phenylpropan-1-one]
- AC50 (recombinant human PKR): < 0.1 µM
- AC50 [1]: < 0.1 µM

SMILES: CCOc1ccc(S(=O)(=O)N2CC(=C3CN(C(=O)[C@H](CO)c4ccccc4)C3)C2)nc1 [Compound 72, (S)-1-(1'-((5-ethoxypyridin-2-yl)sulfonyl)-1',4'-dihydro-2H,2'H-[3,3'-diazetidinylidene]-1(4H)-yl)-3-hydroxy-2-phenylpropan-1-one]
- AC50 (recombinant human PKR): < 0.1 µM
- AC50 [1]: < 0.1 µM

SMILES: O=C(C(CF)c1ccccc1)N1CC(=C2CN(S(=O)(=O)c3ccccn3)C2)C1 (centres unmarked) [Compound 73, 3-fluoro-2-phenyl-1-(1'-(pyridin-2-ylsulfonyl)-1',4'-dihydro-2H,2'H-[3,3'-diazetidinylidene]-1(4H)-yl)propan-1-one]
- AC50 (recombinant human PKR): 0.101 to 0.3 µM
- AC50 [1]: 0.101 to 0.3 µM

SMILES: O=C(C(CO)c1ccc(F)cc1F)N1CC(=C2CN(S(=O)(=O)c3ccccn3)C2)C1 (centres unmarked) [Compound 74, 2-(2,4-difluorophenyl)-3-hydroxy-1-(1'-(pyridin-2-ylsulfonyl)-1',4'-dihydro-2H,2'H-[3,3'-diazetidinylidene]-1(4H)-yl)propan-1-one]
- AC50 (recombinant human PKR): < 0.1 µM
- AC50 [1]: < 0.1 µM

SMILES: O=C(C(CO)c1ccc(C(F)(F)F)cc1)N1CC(=C2CN(S(=O)(=O)c3ccccn3)C2)C1 (centres unmarked) [Compound 78, 3-hydroxy-1-(1'-(pyridin-2-ylsulfonyl)-1',4'-dihydro-2H,2'H-[3,3'-diazetidinylidene]-1(4H)-yl)-2-(4-(trifluoromethyl)phenyl)propan-1-one]
- AC50 (recombinant human PKR): 0.3 to 1 µM
- AC50 [1]: 0.3 to 1 µM

SMILES: O=C(C(CO)c1ccc2c(c1)NCCO2)N1CC(=C2CN(S(=O)(=O)c3ccccn3)C2)C1 (centres unmarked) [Compound 79, 2-(3,4-dihydro-2H-benzo[b][1,4]oxazin-6-yl)-3-hydroxy-1-(1'-(pyridin-2-ylsulfonyl)-1',4'-dihydro-2 H,2'H-[3,3'-diazetidinylidene]-1(4H)-yl)propan-1-one]
- AC50 (recombinant human PKR): < 0.1 µM
- AC50 [1]: 0.101 to 0.3 µM

SMILES: O=C([C@H](CO)c1ccccc1)N1CC(=C2CN(S(=O)(=O)c3ccc(OC(F)F)cn3)C2)C1 [Compound 80, (S)-1-(1'-((5-(difluoromethoxy)pyridin-2-yl)sulfonyl)-1',4'-dihydro-2H,2'H-[3,3'-diazetidinylidene]-1 (4H)-yl)-3-hydroxy-2-phenylpropan-1-one]
- AC50 (recombinant human PKR): < 0.1 µM
- AC50 [1]: < 0.1 µM

SMILES: COc1ccc(S(=O)(=O)N2CC(=C3CN(C(=O)[C@H](CO)c4ccc(F)cc4F)C3)C2)nc1 [Compound 87, (S)-2-(2,4-difluorophenyl)-3-hydroxy-1-(1'-((5-methoxypyridin-2-yl)sulfonyl)-1',4'-dihydro-2H,2'H-[3,3'-diazetidinylidene]-1(4H)-yl)propan-1-one]
- AC50 (recombinant human PKR): < 0.1 µM
- AC50 [1]: < 0.1 µM

SMILES: O=C(N1CC(=C2CN(S(=O)(=O)c3ccccn3)C2)C1)C1(c2ccccc2)COC1 [Compound 89, (3-phenyloxetan-3-yl)(1'-(pyridin-2-ylsulfonyl)-1',4'-dihydro-2H,2'H-[3,3'-diazetidinylidene]-1(4H)-yl)methanone]
- AC50 (recombinant human PKR): 0.101 to 0.3 µM
- AC50 [1]: < 0.1 µM

SMILES: [2H]C([2H])([2H])Oc1ccc(S(=O)(=O)N2CC(=C3CN(C(=O)[C@H](CO)c4ccccc4)C3)C2)nc1 [Compound 91, (S)-3-hydroxy-1-(1'-((5-(methoxy-d3)pyridin-2-yl)sulfonyl)-1',4'-dihydro-2H,2'H-[3,3'-diazetidinylidene]-1(4H)-yl)-2-phenylpropan-1-one]
- AC50 (recombinant human PKR): < 0.1 µM
- AC50 [1]: < 0.1 µM

Source: patent EP4721737A1, “USE OF PHARMACEUTICAL COMPOSITION COMPRISING COMPOUND HAVING BIS(AZANYLYLIDENE) SULFONYL STRUCTURE FOR TREATING ANEMIA-RELATED DISEASES” (Scinnohub Pharmaceutical Co., Ltd., priority 2023, dated 2024)
